Reference: patent EP0586960B1, “Xanthone derivatives, their preparation and use” (INVERNI DELLA BEFFA S.P.A., priority 1992, dated 1994)
Read-outs that look alike come from different tables or passages of the source.

Columns and labels:
[1] = system: suckling rats under hypocalcic diet; test: Antiosteoporotic activity in suckling rats under hypocalcic diet (femur compacta thickness by microradiography); assay type: in vivo, Wistar rats; conditions: 250 mg/kg/os
Experimental: In vivo, the antiosteoporotic activity of the compound I (R = iPr, R₁ = OiPr) administered by the oral route, was evaluated on suckling rats under hypocalcic diet according to the method, slightly modified, disclosed by Lozupone et al., Bone, 9; 215, 1988). Female Wistar rats were allowed to delivery spontaneously.
The offsprings were pooled, weighed and re-distributed so as to obtain nests similar in weight and number.
The mothers during the suckling period were fed with an hypocalcic diet (Altromin DP 1031) and divided in two groups.
One group was treated orally with compound I (R = iPr, R₁ = OiPr) suspended in Methocel 0.5% at the dose of 250 mg/kg, whereas the second was treated with the vehicle alone (control group). The animals were sacrificed after 10 days from the start of milking.
The femur was taken from each animal and fixed, included in methacrylate and transversally cut. Two sections taken at the distal methaphysis and one from the medial methaphysis were microradiographed so as to measure the thickness of the compacta.

hen osteoclasts = test: Bone resorption by hen osteoclast cultures with rat bone particles pre-labelled with tritiated proline; assay type: cell-based; conditions: for inhibition at 10 µg/mL / inhibition at 25 µg/mL: Osteoclast, read-out: Inhibition % vs. controls
Experimental: The activity of the new xanthones has been evaluated in vitro and in vivo. The effect on the bone resorption has been studied in vitro according to Zambonin-Zallone et al. Anatomy Embriology, 165, 405, 1982). The medullary bone, deriving from tibia and femur of hens fed with hypocalcic diet for 7 days was washed with MEM buffer, modified according to Joklik, at 4°C and filtered through a nylon filter with pore diameters of 112 microns. The obtained cell suspension was centrifuged at 1800 rpm for 5 minutes. The surnatant was discarded and the pellet treated with a 0.2% NaCl solution for 30 seconds to eliminate most of the present red blood cells. After restoration of the physiological osmolarity by means of 1.6% NaCl, the sample was centrifuged at 1800 rpm for 5 min. The obtained pellet, suspended again in the culture medium, was layered on 75% foetal calf serum in Joklik MEM for 45 min, so as to obtain a cell suspension enriched in osteoclasts. The fibroblasts were then filtered off by means of two filtrations on 112 µn nylon filters.
The so obtained cells were cultivated in a nucleotide-free medium, in the presence of 3 µg/ml of cytosine-1-D-β-arabinofuranoside to block the mitosis of proliferating cells. The culture medium contained 100 µg/ml streptomycin, 100 U.I./ml penicillin and 10% fetal calf serum. The cultures were incubated in humid atmosphere saturated with 5% CO₂ at 37°C and washed after 24 and 48 hours to remove non-adhering medullary cells.
The bone resorption was evaluated using the so prepared osteoclasts cultures cultured in the presence of rat bone particles, pre-labelled in vivo with trititated proline. During the resorption process, the collagen was degraded into fragments containing tritiated proline which was released in the culture medium; the resorption was calculated by measuring the radioactivity present in the medium after 24 and 48 hours of treatment.
Simultaneously to each experiment, cell-free samples have also been prepared containing only bone fragments labelled in the culture medium to measure the aspecific release of radioactivity from the bone. This value was subtracted as background from the corresponding experimental value.
The compounds under examination were added to the culture medium at the concentrations of 10 and 25 µg/ml dissolved in DMSO. The inhibiting effect on the bone resorption of osteoclast of compound I (R = iPr, R₁ = OiPr), as an example, is reported on Table 1.
The significance was evaluated by the Student's t test versus the group treated with the solvent alone (control).

[2] = Acute toxicity in the rat after oral and intraperitoneal administration; design: species or system Sprague-Dawley rats; conditions: in vivo, 14 days observation, read-out: LD₅₀
Experimental: The acute toxicity of the compound I (R = iPr; R₁ = OiPr) was evaluated in the rat after oral and intraperitoneal administration.
Sprague-Dawley rats of both sexes (5M + 5F) were used for each group. […] The compound has an LD₅₀ > 4000 mg/kg (LD₀) after oral administration and an LD₅₀ > 1000 mg/kg (LD₂₀) by intraperitoneal route.

[3] = change versus control group (Methocel 0.5%)
[4] = change versus control group (Methocel 0.5%); R₁ = OiPr)
[5] = femur, sacrificed after 10 days, n = 3, p < 0.05

CC(C)Oc1ccc2c(=O)c3ccc(OC(C)C)cc3oc2c1 [I (R=iPr; R₁=OiPr), 3,6-Di(isopropoxy)xanthone]
Compacta thinkness Diaphysis % [1, 3]: +29%
Compacta thinkness Methaphysis % [1, 3]: +29%
Compacta thinkness Diaphysis % [1, 4]: 29%
Compacta thinkness Methaphysis % [1, 4]: 29%
Compacta thinkness Diaphysis mm ± S.D. [1, 5]: 0.71±0.03 mm
Compacta thinkness Methaphysis mm ± S.D. [1, 5]: 0.40±0.12 mm
Bone Res. (hen osteoclasts; Conc. 10 µg/ml, 24h, n = 4): 32.1 ± 3.6 µg
Bone Res. (hen osteoclasts; Conc. 10 µg/ml, 48h, n = 4): 50.2 ± 6.3 µg
Bone Res. (hen osteoclasts; Conc. 25 µg/ml, 24h, n = 4, p < 0.01): 16.0 ± 1.0 µg
Bone Res. (hen osteoclasts; Conc. 25 µg/ml, 48h, n = 4, p < 0.01): 21.0 ± 1.0 µg
inhibition at 10 µg/mL (hen osteoclasts; Conc. 10 µg/ml, 24h): 27.5%
inhibition at 10 µg/mL (hen osteoclasts; Conc. 10 µg/ml, 48h): 30.9%
inhibition at 25 µg/mL (hen osteoclasts; Conc. 25 µg/ml, 24h): 63.8%
inhibition at 25 µg/mL (hen osteoclasts; Conc. 25 µg/ml, 48h): 71.1%
activity on bone resorption (hen osteoclasts; at the concentrations of 10 and 25 µg/ml): dose dependent activity
bone resorption inhibition in comparison to unexposed controls (hen osteoclasts; both at 24 and at 48 hours, concentration not stated in the sentence (10 and 25 µg/ml tested)): higher than 60%
LD50 at 336 h ([2]; ip, intraperitoneal route, printed with (LD₂₀)): > 1000 mg/kg
LD50 at 336 h ([2]; oral administration, printed with (LD₀)): > 4000 mg/kg
